One assay has as its target T1, PTPN12 (Homo sapiens, UniProt Q05209).
T1 construct: The truncated version was used as it was far easier to handle and gave parallel results to the full length protein; made in house; host or cells: bacterial strain ER2566
T1 sequence (Q05209 28-293 limits assumed): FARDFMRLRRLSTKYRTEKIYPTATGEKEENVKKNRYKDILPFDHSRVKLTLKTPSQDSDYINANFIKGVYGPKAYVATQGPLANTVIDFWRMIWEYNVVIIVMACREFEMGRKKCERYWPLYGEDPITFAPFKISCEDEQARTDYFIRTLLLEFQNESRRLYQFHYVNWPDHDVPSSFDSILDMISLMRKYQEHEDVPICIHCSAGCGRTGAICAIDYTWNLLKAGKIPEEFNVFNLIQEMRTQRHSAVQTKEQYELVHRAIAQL
The assay is described as follows: In vitro phosphatase assay (malachite green, phosphate release from ppC SRC 60 peptide). Format: biochemical. The settings on record: read-out: Inhibition of PTPN12 IC50. From the text: Expression of human truncated PTPN12 (PTP-PEST-N) as a fusion protein required that the cDNA be ligated into the polyclonal site situated in frame and upstream of the intein gene of the IMPACT™ expression vector pTWIN-II. The truncated version was used as it was far easier to handle and gave parallel results to the full length protein in comparison testing. For the purpose of simplicity, PTP-PEST-N will be used interchangeably with PTPN12 in these Examples.
Active PTPN12 enzyme is expressed from the IMPACT™ vector system in the bacterial strain ER2566. Recombinant PTPN12 protein is purified from bacterial cells using affinity chromatography on chitin-agarose beads followed by a chemical process whereby PTPN12 is released from its affinity tag. A complete quantitative and qualitative analysis of the protein is monitored using Coomassie-Blue staining of SDS-PAGE separated preparations and by PTPN12-specific western blotting. […]
(§1) The enzyme (phosphatase) activity was determined in a reaction that measured phosphate relase from tyrosine phospho-specific peptides using a method first described by Harder et al., Biochem. J. (1994), Vol. 298, pp. 395-401. […]
(§2) The assay plate was incubated at room temperature (21° C.) for 15 minutes. […] The plate was “read” on Bio-tek Instruments EL312e microplate Bio-Kinetics™ Reader at 590 nm and the data collected as per instrument manual.

Another assay deals with T2, PTPN2 (Homo sapiens, UniProt P17706).
T2 construct: made in house; host or cells: bacterial expression system (IMPACT, New England BioLabs)
T2 sequence (P17706 1-415): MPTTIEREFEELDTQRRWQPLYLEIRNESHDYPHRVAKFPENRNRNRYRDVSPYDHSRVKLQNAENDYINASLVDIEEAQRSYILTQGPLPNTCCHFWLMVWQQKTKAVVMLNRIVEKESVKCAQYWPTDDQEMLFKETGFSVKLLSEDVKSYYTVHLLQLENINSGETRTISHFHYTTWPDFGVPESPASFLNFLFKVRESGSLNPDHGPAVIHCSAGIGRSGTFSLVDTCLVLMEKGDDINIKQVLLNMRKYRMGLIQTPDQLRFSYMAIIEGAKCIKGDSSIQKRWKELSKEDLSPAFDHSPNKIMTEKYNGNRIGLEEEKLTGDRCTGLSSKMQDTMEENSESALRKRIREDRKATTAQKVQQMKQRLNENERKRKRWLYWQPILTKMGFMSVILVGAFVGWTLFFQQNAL
Described as above. Format: biochemical. The settings on record: read-out: Inhibition of PTPN2 IC50.
From the text: PTPN2 was cloned from a human placental cDNA library in the IMPACT™ (New England BioLabs) bacterial expression system. The technology was first described by Chong et al., Gene (1997), Vol. 192, pp. 271-281. The IMPACT™ Protein Purification System was purchased commercially from New England BioLabs. The resulting product was used in the development of a protein phosphatase assay for high-throughput screening (HTS) of target molecules and in other assays described herein (see Example 2).
This activity was considered to be in the high range as compared to other recombinant protein tyrosine phosphatases assayed. […]
as §1, §2
(§3) The blank and negative controls were read, and blanks were subtracted from the average of negative control values and sample values, and the % inhibition was expressed by the following formula: % Inhibition=100−[corrected sample reading/corrected Negative Control reading*100].

The target of a further assay is T3, PTPN1 (Homo sapiens, UniProt P18031).
T3 sequence (P18031 1-435): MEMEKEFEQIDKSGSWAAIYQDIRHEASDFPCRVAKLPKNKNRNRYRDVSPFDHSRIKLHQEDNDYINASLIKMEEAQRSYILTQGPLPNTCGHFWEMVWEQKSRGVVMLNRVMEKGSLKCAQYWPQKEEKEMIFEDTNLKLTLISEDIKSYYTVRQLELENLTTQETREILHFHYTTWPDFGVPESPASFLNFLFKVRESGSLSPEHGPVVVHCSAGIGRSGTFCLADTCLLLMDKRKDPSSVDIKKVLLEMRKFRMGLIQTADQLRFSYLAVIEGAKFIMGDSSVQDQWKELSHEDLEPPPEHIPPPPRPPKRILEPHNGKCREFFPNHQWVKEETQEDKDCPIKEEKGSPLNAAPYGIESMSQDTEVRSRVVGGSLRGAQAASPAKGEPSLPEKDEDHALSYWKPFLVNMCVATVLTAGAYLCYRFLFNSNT
The assay is described as above. The following applies: read-out: Inhibition of PTPN1 IC50. Format: biochemical. The procedure: Compounds of formula (I) and formula (Ia) were tested in the following assay for their ability to inhibit the activity of the desired phosphatase.
The enzyme (phosphatase) activity was determined in a reaction that measured phosphate relase from tyrosine phospho-specific peptides using a method first described by Harder et al., Biochem. J. (1994), Vol. 298, pp. 395-401. This is a non-radioactive method for measuring free phosphate by the malachite green method first described by Van Veldhoven and Mannaerts, Anal Biochem. (1987), Vol. 161, pp. 45-48. 10× assay buffer (250 mM Tris:100 mM, β-mercaptoethanol, 50 mM EDTA; pH 7.2) was diluted to 5× concentration (conc.) with distilled H2O (dH2O). Then 71.4 μM of substrate working stock solution was prepared in dH2O. […]
as §2, §3

Assay [1] concerns prostate cancer cell line PC3. The assay is described as follows: Cell migration in a Boyden chamber. Format: cell-based. The following applies: cell line not given. An excerpt: A range of cell lines are used in this assay, particularly the prostate cancer cell line PC3 and PTPN12 mouse embryonic fibroblasts (MEFs). The role of PTPN12 in migration was established based on the observations of PTPN12 negative MEFs. Cell adhesion and migration are dynamic biological activities involving the assembly and disassembly of a large number of extracellular and intracellular molecules, for example, actin, which are regulated in turn by protein phosphorylation. […] Migration is reduced in PTPN12 knock-out MEFs. By extension, a PTPN12 inhibitor should reduce cell migration in a Boyden chamber. Therefore, as a readout for PTPN12 activity, the following assay is designed to analyze cell migration in Boyden chambers. […]
For tumour cell lines, stock cells (ie. PC3 cells) are grown to 50-70% confluency in T175 flasks. […] Fluorescence of migrated cells is read in a Fluoroskan Ascent FL™ (or equivalent) with bottom reading at excitation/emission wavelength of 485/538 nm. Only those cells that have migrated through the pores of the FluoroBlok™ membrane will be read. […]
Data is expressed as fluorescence unit (FU) from the sum of middle 25 areas per 24-well or as percentage of migration inhibition by following formula: % of invasion inhibition=100−FU of compound treated cell invasion/FU of DMSO treated cell invasion times 100. […]

Another assay relates to H460 Cells. Nature of the assay: Cell proliferation (3H-thymidine incorporation). The following applies: Homo sapiens, NCI-H460. The format is cell-based. From the text: (§4) This procedure (Jelinkova, R. B. et al., “Antiproliferative effect of a lectin- and anti-Thy-1.2 antibody-targeted HPMA copolymer-bound doxorubicin on primary and metastatic human colorectal carcinoma and on human colorectal carcinoma transfected with the mouse Thy-1.2 gene”, Bioconjug. Chem. (2000, September-October), Vol. 11, No. 5, pp. 664-73) is used to assess the effect compounds have on various cell lines with respect to proliferation. The rate of anchorage-independent growth of various tumor cells is quantified by measuring the amount of free isotopic thymidine that has been incorporated into the cells over a period of time. The effect of any compound to inhibit the proliferation of various tumor cells could be used as an indication of its ability to prevent disease progression in cancer.
(§5) Cultured tumour cells are harvested cells as per normal procedures: i.e. trypsinize, centrifuge and count cells. A volume of 90 μL is used to seed 5,000 cells/well in a 96 well plate. Cells are incubated for 24 hours at 37° C. under 5% CO2. After incubation, cells should be 80-90% confluent.
(§6) ^3H-thymidine (Amersham) is diluted in cell culture media to a concentration of 100 μCi/mL. The test compound is diluted in the thymidine broth to 10× the final desired concentration.
(§7) Then 10 μL of diluted compound is added to the 90 μL of cells already present in the 96-well plates. Six replicates wells are done per treatment in columns 2 to 11. Plates were mixed by rocking.
(§8) A known cytotoxic compound such as staurosporine is used in relatively high concentrations as a positive control in column 1. Diluted DMSO is used as a negative control in column 12. The plate is incubated for exactly 24 hours at 37° C.
(§9) After incubation, plates are observed under the microscope for obvious cell death, abnormal cell shape, crystal formation of the compound, etc. Then 25 μL volume of cold 50% TCA is added slowly to the 100 μL volume already in each well, and incubated for 1-2 hours at 4° C. The plates are then washed 5× in tap water and allowed to dry completely (usually overnight) at ambient temperature. Finally, 100 μL of scintillation fluid is added to each well and the plates are counted in a Wallac 1450 Microbeta™ counter according to user manual instructions.
(§10) The amount of inhibition is determined by the following formula: % inhibition=100−[(AVG treatment−AVG positive control)/[…]]

Another assay deals with PC3 Cells. Nature of the assay: Cell proliferation (3H-thymidine incorporation). The format is cell-based. The following applies: Homo sapiens, PC-3.
From the text: as §4, §5, §6, §7, §8, §9, §10

We go through two compounds from US7393869B2, “Methods of using thiazolidine derivatives to treat cancer or inflammation” (QLT Inc., priority 2002, dated 2008).

`Cc1ccc(C=C2SC(=S)N(CCC(=O)Nc3ccc(S(=O)(=O)Nc4nccs4)cc3)C2=O)cc1` [3-[5-(4-methylbenzylidene)-4-oxo-2-thioxothiazolidin-3-yl]-N-[4-(thiazol-2-ylsulfamoyl)-phenyl]-propionamide]: the half-inhibitory concentration (IC50) stood at 1100 nM at PTPN12, 950 nM on PTPN2 and 1500 nM on PTPN1. Also, at 25 µM the inhibition in assay [1] was 87%. In addition, the results for the inhibition at 50 µM in the assay on H460 Cells and in the assay with PC3 Cells were 43% and 47%, respectively.
As for `Cc1ccc(C=C2SC(=S)N(CCC(=O)Nc3ccc(S(N)(=O)=O)cc3)C2=O)cc1` [3-[5-(4-methylbenzylidene)-4-oxo-2-thioxothiazolidin-3-yl]-N-(4-sulfamoylphenyl)-propionamide], the half-inhibitory concentration (IC50) at PTPN12 came out at 1500 nM; on PTPN2, 1600 nM; at PTPN1, 3000 nM. In assay [1], this compound returned an inhibition at 25 µM of 55%. Also, the inhibition at 50 µM stood at 45% with H460 Cells and 35% with PC3 Cells.
